The record followed here is patent US20240166693A1, “METHODS AND COMPOUNDS FOR MODULATING MYOTONIC DYSTROPY 1” (Design Therapeutics, Inc., priority 2020, published 2024).

Each structure is given as a SMILES string. Like-named read-outs stand apart in the source and are kept apart here. Starred links: 1 amine or outer side, 2 acyl side, 3 side chain; linkers in the order of their positions; H or OH if unused. Positions of bridges follow the written chain, without caps; N, C: chain ends. Non-standard residues stand in square brackets, D forms with d. Residues, ends and D or L forms follow the SMILES beside them. Chains are numbered I, II in the order given. *: point of attachment. ImPyβIm = Cn1cc(NC(=O)c2nccn2C)cc1C(=O)NCCC(=O)Nc1cn(C)c(C(=O)*)n1; HN(CH2CH2O)5CH2CH2NH = C(COCCOCCOCCOCCOCCN[*:2])N[*:1]; 4Amino1MeIm2CO = Cn1cc(N[*:1])nc1C(=O)[*:2]; Benzoyl(4-tBu) = CC(C)(C)c1ccc(C(=O)*)cc1; Lys(Et2) = CCN(CC)CCCC[C@H](N)C(=O)O; X1 = Cn1cc(N[*:1])cc1C(=O)[*:2]; dDab = NCC[C@@H](N)C(=O)O

This assay relates to Myotonic Dystrophy 1 affected patient fibroblasts (Coriell GM04602; 1600 CTG repeats). Nature of the assay: DM1 foci reduction assay (CAG10-Cy3 FISH, average foci per nucleus). Type of assay: cell-based. The following applies: Homo sapiens, Fibroblast. The gist of the method:
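Read-out is mean nuclear foci per well from CAG10-Cy3 FISH (5 nM probe, overnight 37 °C) with DAPI nuclei, 4 fields per well at 20×. Compounds ran 48 h in 8-point, 3-fold series topping at 3 μM on 1600-CTG GM04602 fibroblasts, alongside GM07492 wild-type cells.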

[1] abbreviates: DM1 fibroblasts, 48 h treatment, 8-point dose response, 3 μM top dose, read-out: Foci Reduction in Fibroblast EC50, 48 h.
Where [2] appears, read: 48 h, read-out: Foci Reduction in Fibroblast EC50, 48 h (nM).

Take `COc1c(OCCOCCOCCOCCOCCOCCNC(=O)CCNC(=O)c2nc(NC(=O)c3cc(NC(=O)CCNC(=O)c4nc(NC(=O)CCCNC(=O)c5cc(NC(=O)c6nc(NC(=O)CCNC(=O)c7cc(NC(=O)c8nccn8C)cn7C)cn6C)cn5C)cn4C)cn3C)cn2C)cccc1C(=O)N1CCN(C(=O)COc2cccc(C)c2)CC1` [Compound 94]: the EC50 (usually the concentration that produces a half-maximal response) under setting [1] was above 500 nM.

For the compound `COc1c(OCCOCCOCCOCCOCCOCCNC(=O)CCNC(=O)c2nc(NC(=O)c3cc(NC(=O)CCNC(=O)c4nc(NC(=O)CCCNC(=O)c5cc(NC(=O)c6nc(NC(=O)CCNC(=O)c7cc(NC(=O)c8nccn8C)cn7C)cn6C)cn5C)cn4C)cn3C)cn2C)cccc1C(=O)N1CCN(C(=O)COc2ccc(NC(N)=O)c(C)c2)CC1` [Compound 95], the EC50 under setting [1] was above 500 nM.

On to `CCN(CC)CCCC[C@H](NC(=O)[C@H](CC(C)C)NC(=O)[C@H](C)NC(=O)[C@H](Cc1ccccc1)NC(=O)c1ccc(C(C)(C)C)cc1)C(=O)N[C@@H](CO)C(=O)Nc1ccc(C#CC#CCNC(=O)CCNC(=O)c2nc(NC(=O)c3cc(NC(=O)CCNC(=O)c4nc(NC(=O)CCCNC(=O)c5cc(NC(=O)c6nc(NC(=O)CCNC(=O)c7cc(NC(=O)c8nccn8C)cn7C)cn6C)cn5C)cn4C)cn3C)cn2C)cc1` [Compound 96], for which the EC50 under setting [2] is below 100 nM.

For `CCN(CC)CCCC[C@H](NC(=O)[C@H](CC(C)C)NC(=O)[C@H](C)NC(=O)[C@H](Cc1ccccc1)NC(=O)c1ccc(C(C)(C)C)cc1)C(=O)N[C@@H](CO)C(=O)NCCOCCNCC#CC#Cc1ccc(NC(=O)CCNC(=O)c2nc(NC(=O)c3cc(NC(=O)CCNC(=O)c4nc(NC(=O)CCCNC(=O)c5cc(NC(=O)c6nc(NC(=O)CCNC(=O)c7cc(NC(=O)c8nccn8C)cn7C)cn6C)cn5C)cn4C)cn3C)cn2C)cc1` [Compound 98], under setting [2], the EC50 was above 500 nM. With `CCN(CC)CCCC[C@H](NC(=O)CNC(=O)CNC(=O)CNC(=O)c1ccc(C(C)(C)C)cc1)C(=O)N[C@@H](CO)C(=O)NCCOCCOCCOCCOCCOCCNC(=O)CCNC(=O)c1nc(NC(=O)c2cc(NC(=O)CCNC(=O)c3nc(NC(=O)CCCNC(=O)c4cc(NC(=O)c5nc(NC(=O)CCNC(=O)c6cc(NC(=O)c7nccn7C)cn6C)cn5C)cn4C)cn3C)cn2C)cn1C` [Compound 99], the EC50 under setting [2] is below 100 nM. The same measure, in the same setting: the same measure for `CCN(CC)CCCC[C@H](NC(=O)[C@H](CC(C)C)NC(=O)[C@H](C)NC(=O)[C@H](Cc1ccccc1)NC(=O)c1ccc(C(C)(C)C)cc1)C(=O)N[C@@H](CO)C(=O)NCCOCCOCCOCCOCCOCCNC(=O)CCNC(=O)c1nc(NC(=O)c2cc(NC(=O)CCNC(=O)c3nc(NC(=O)[C@H](N)CCNC(=O)c4cc(NC(=O)c5nc(NC(=O)CCNC(=O)c6cc(NC(=O)c7nccn7C)cn6C)cn5C)cn4C)cn3C)cn2C)cn1C` [Compound 101]: 100 to 500 nM. As to `CCN(CC)CCCC[C@H](NC(=O)[C@H](CC(C)C)NC(=O)[C@H](C)NC(=O)[C@H](Cc1ccccc1)NC(=O)c1ccc(C(C)(C)C)cc1)C(=O)N[C@@H](CO)C(=O)NCCOCCOCCOCCOCCOCCNC(=O)CCNC(=O)c1nc(NC(=O)c2cc(NC(=O)CCNC(=O)c3nc(NC(=O)[C@@H](CCNC(=O)c4cc(NC(=O)c5nc(NC(=O)CCNC(=O)c6cc(NC(=O)c7nccn7C)cn6C)cn5C)cn4C)NC(C)=O)cn3C)cn2C)cn1C` [Compound 102], the EC50 under setting [2] is 100 to 500 nM.

`CCN(CC)CCCC[C@H](NC(=O)[C@H](CC(C)C)NC(=O)[C@H](C)NC(=O)[C@H](Cc1ccccc1)NC(=O)c1ccc(C(C)(C)C)cc1)C(=O)N[C@@H](CO)C(=O)NCCOCCOCCOCCOCCOCCNC(=O)c1nc(NC(=O)c2cc(NC(=O)CCNC(=O)c3nc(NC(=O)CCCNC(=O)c4nc(NC(=O)c5nc(CC(=O)CCNC(=O)c6cc(NC(=O)c7nccn7C)cn6C)cn5C)cn4C)cn3C)cn2C)cn1C` [Compound 103]: under setting [2], the EC50 was below 100 nM. The same measure, in the same setting: the value for `CCN(CC)CCCC[C@H](NC(=O)[C@H](CC(C)C)NC(=O)[C@H](C)NC(=O)[C@H](Cc1ccccc1)NC(=O)c1ccc(C(C)(C)C)cc1)C(=O)N[C@@H](CO)C(=O)NCCOCCOCCOCCOCCOCCNC(=O)c1nc(NC(=O)CCNC(=O)c2cc(NC(=O)c3nc(NC(=O)CCCNC(=O)c4nc(NC(=O)c5nc(CC(=O)CCNC(=O)c6cc(NC(=O)c7nccn7C)cn6C)cn5C)cn4C)cn3C)cn2C)cn1C` [Compound 104] was above 500 nM; that for `CCN(CC)CCCC[C@H](NC(=O)[C@H](CC(C)C)NC(=O)[C@H](C)NC(=O)[C@H](Cc1ccccc1)NC(=O)c1ccc(C(C)(C)C)cc1)C(=O)N[C@@H](CO)C(=O)NCCOCCOCCOCCOCCOCCNC(=O)c1nc(NC(=O)c2cc(NC(=O)c3cc(NC(=O)c4nc(NC(=O)CCCNC(=O)c5cc(NC(=O)c6nc(NC(=O)CCNC(=O)c7cc(NC(=O)c8nccn8C)cn7C)cn6C)cn5C)cn4C)cn3C)cn2C)cn1C` [Compound 105] was above 500 nM. As to `CCN(CC)CCCC[C@H](NC(=O)[C@H](CC(C)C)NC(=O)[C@H](C)NC(=O)[C@H](Cc1ccccc1)NC(=O)c1ccc(C(C)(C)C)cc1)C(=O)N[C@@H](CO)C(=O)NCCOCCOCCOCCOCCOCCNC(=O)c1nc(NC(=O)CCNC(=O)c2cc(NC(=O)c3nc(NC(=O)CCCNC(=O)c4cc(NC(=O)c5nc(NC(=O)c6cc(NC(=O)c7cc(NC(=O)c8nccn8C)cn7C)cn6C)cn5C)cn4C)cn3C)cn2C)cn1C` [Compound 106], the EC50 under setting [2] is above 500 nM.

Turning to `CCN(CC)CCCC[C@H](NC(=O)[C@H](CC(C)C)NC(=O)[C@H](C)NC(=O)[C@H](Cc1ccccc1)NC(=O)c1ccc(C(C)(C)C)cc1)C(=O)N[C@@H](CO)C(=O)NCCOCCOCCOCCOCCOCCNC(=O)c1nc(NC(=O)CCNC(=O)c2cc(NC(=O)c3nc(NC(=O)CCCNC(=O)c4cc(NC(=O)c5nc(NC(=O)c6cc(NC(=O)c7cccn7C)cn6C)cn5C)cn4C)cn3C)cn2C)cn1C` [Compound 107], the EC50 under setting [2] is above 500 nM. Same read-out and setting: the value for `CCN(CC)CCCC[C@H](NC(=O)[C@H](CC(C)C)NC(=O)[C@H](C)NC(=O)[C@H](Cc1ccccc1)NC(=O)c1ccc(C(C)(C)C)cc1)C(=O)N[C@@H](CO)C(=O)NCCOCCOCCOCCOCCOCCNC(=O)c1nc(NC(=O)CCNC(=O)c2cc(NC(=O)c3nc(NC(=O)[C@H](N)CCNC(=O)c4cc(NC(=O)c5nc(NC(=O)c6cc(NC(=O)c7cccn7C)cn6C)cn5C)cn4C)cn3C)cn2C)cn1C` [Compound 108] was 100 to 500 nM; that for `CCN(CC)CCCC[C@H](NC(=O)[C@H](CC(C)C)NC(=O)[C@H](C)NC(=O)[C@H](Cc1ccccc1)NC(=O)c1ccc(C(C)(C)C)cc1)C(=O)N[C@@H](CO)C(=O)NCCOCCOCCOCCOCCOCCNC(=O)c1nc(NC(=O)CCNC(=O)c2cc(NC(=O)c3nc(NC(=O)[C@@H](CCNC(=O)c4cc(NC(=O)c5nc(NC(=O)c6cc(NC(=O)c7cccn7C)cn6C)cn5C)cn4C)NC(C)=O)cn3C)cn2C)cn1C` [Compound 109] was above 500 nM. As for `CCN(CC)CCCC[C@H](NC(=O)[C@H](CC(C)C)NC(=O)[C@H](C)NC(=O)[C@H](Cc1ccccc1)NC(=O)c1ccc(C(C)(C)C)cc1)C(=O)N[C@@H](CO)C(=O)NCCOCCOCCOCCOCCOCCNC(=O)c1cc(NC(=O)c2nc(NC(=O)CCCNC(=O)c3cc(NC(=O)c4nc(NC(=O)CCNC(=O)c5cc(NC(=O)c6nccn6C)cn5C)cn4C)cn3C)cn2C)cn1C` [Compound 110], the EC50 under setting [2] is above 500 nM.

As to `CCN(CC)CCCC[C@H](NC(=O)[C@H](CC(C)C)NC(=O)[C@H](C)NC(=O)[C@H](Cc1ccccc1)NC(=O)c1ccc(C(C)(C)C)cc1)C(=O)N[C@@H](CO)C(=O)NCCOCCOCCOCCOCCOCCNC(=O)c1cc(NC(=O)c2nc(NC(=O)[C@H](N)CCNC(=O)c3cc(NC(=O)c4nc(NC(=O)CCNC(=O)c5cc(NC(=O)c6nccn6C)cn5C)cn4C)cn3C)cn2C)cn1C` [Compound 111], the EC50 under setting [2] is above 500 nM.

Take `CCN(CC)CCCC[C@H](NC(=O)[C@H](CC(C)C)NC(=O)[C@H](C)NC(=O)[C@H](Cc1ccccc1)NC(=O)c1ccc(C(C)(C)C)cc1)C(=O)N[C@@H](CO)C(=O)NCCOCCOCCOCCOCCOCCNC(=O)c1cc(NC(=O)c2nc(NC(=O)[C@@H](CCNC(=O)c3cc(NC(=O)c4nc(NC(=O)CCNC(=O)c5cc(NC(=O)c6nccn6C)cn5C)cn4C)cn3C)NC(C)=O)cn2C)cn1C` [Compound 112]: under setting [2], the EC50 is above 500 nM. On the same count and under the same terms, the same measure for `CCN(CC)CCCC[C@H](NC(=O)[C@H](CC(C)C)NC(=O)[C@H](C)NC(=O)[C@H](Cc1ccccc1)NC(=O)c1ccc(C(C)(C)C)cc1)C(=O)N[C@@H](CO)C(=O)NCCOCCOCCOCCOCCOCCNC(=O)c1cc(NC(=O)c2cc(NC(=O)c3nc(NC(=O)c4cc(NC(=O)CCCNC(=O)c5nc(NC(=O)CCNC(=O)c6cc(NC(=O)c7nccn7C)cn6C)cn5C)cn4C)cn3C)cn2C)cn1C` [Compound 113]: above 500 nM; for `CCN(CC)CCCC[C@H](NC(=O)[C@H](CC(C)C)NC(=O)[C@H](C)NC(=O)[C@H](Cc1ccccc1)NC(=O)c1ccc(C(C)(C)C)cc1)C(=O)N[C@@H](CO)C(=O)NCCOCCOCCOCCOCCOCCNC(=O)c1cc(NC(=O)c2cc(NC(=O)c3nc(NC(=O)c4cc(NC(=O)[C@@H](CCNC(=O)c5nc(NC(=O)CCNC(=O)c6cc(NC(=O)c7nccn7C)cn6C)cn5C)NC(C)=O)cn4C)cn3C)cn2C)cn1C` [Compound 114] (I: {Benzoyl(4-tBu)}-FAL[Lys(Et2)]S / II: Ac-[dDab](ImPyβIm)[X1][4Amino1MeIm2CO][X1][X1]; linker I:C-II:C via HN(CH2CH2O)5CH2CH2NH): above 500 nM; for `CCN(CC)CCCC[C@H](NC(=O)[C@H](CC(C)C)NC(=O)[C@H](C)NC(=O)[C@H](Cc1ccccc1)NC(=O)c1ccc(C(C)(C)C)cc1)C(=O)N[C@@H](CO)C(=O)NCCOCCOCCOCCOCCOCCNC(=O)c1cc(NC(=O)c2nc(NC(=O)c3cc(NC(=O)CCCNC(=O)c4nc(NC(=O)CCNC(=O)c5cc(NC(=O)c6nccn6C)cn5C)cn4C)cn3C)cn2C)cn1C` [Compound 115]: above 500 nM. Consider `CCN(CC)CCCC[C@H](NC(=O)[C@H](CC(C)C)NC(=O)[C@H](C)NC(=O)[C@H](Cc1ccccc1)NC(=O)c1ccc(C(C)(C)C)cc1)C(=O)N[C@@H](CO)C(=O)NCCOCCOCCOCCOCCOCCNC(=O)c1cc(NC(=O)c2nc(NC(=O)c3cc(NC(=O)[C@H](N)CCNC(=O)c4nc(NC(=O)CCNC(=O)c5cc(NC(=O)c6nccn6C)cn5C)cn4C)cn3C)cn2C)cn1C` [Compound 116], for which the EC50 under setting [2] is above 500 nM.
